Where a name gives a salt, the structure may show the parent alone.
How the values were obtained:
[1] = PDR 1997 p. 564; cited from earlier work
[2] = 5 and 10 ml of water
[3] = Blood pressure / hemodynamic monitoring after urethral suppository (Example 1); details: rabbit, urethral suppository approx. 100 mg lidocaine

Structure (SMILES)	maximum recommended adult dose [1] [mg/kg]	effect of fluid volume on pH of lidocaine/sodium bicarbonate [2]	hemodynamic changes [3]
CCN(CC)CC(=O)Nc1c(C)cccc1C [lidocaine hydrochloride]	4.5		
CCN(CC)CC(=O)Nc1c(C)cccc1C [lidocaine]		does not appear to have a major effect	No significant hemodynamic changes
